Measurements from patent US20230138395A1, “PHARMACEUTICAL COMPOSITIONS OF A THERAPEUTIC POLYENE MACROLIDE AND METHODS OF THEIR USE” (priority 2020, published 2023).
In brackets after ≈: the same amount, converted by molar mass. Several values for one entry are separate records, joined by “and”; a condition that tells them apart may be missing. Equal entries are not always repeated.

Tests used:
[1] = system: Candida albicans; assay: MIC testing (CLSI M27-A3); format: cell-based; set-up: MIC: unit not given beside the values
[2] = system: Candida albicans; assay: MFC determination; format: cell-based
[3] = system: C. glabrata strains; assay: MIC testing (CLSI M27-A3); format: cell-based; set-up: MIC: unit not given beside the values
[4] = system: C. glabrata strains; assay: MFC determination; format: cell-based; set-up: MFC: unit not given beside the values
[5] = system: C. krusei strains; assay: MIC testing (CLSI M27-A3); format: cell-based
[6] = system: C. krusei strains; assay: MFC determination; format: cell-based; settings: C. krusei
[7] = system: C. parapsilosis; assay: MIC testing (CLSI M27-A3); format: cell-based; set-up: MIC: unit not given beside the values
[8] = system: Cr. neoformans strains; assay: MFC determination; format: cell-based, Cryptococcus neoformans; settings: Cr. neoformans
[9] = system: individual Aspergillus spp. (Table 12, species not named); assay: MIC testing (CLSI M38-A2), Table 12; format: cell-based; settings: Aspergillus sp. of Table 12, caspofungin read as MEC
[10] = system: individual Aspergillus spp. (Table 13, species not given); assay: MIC testing (CLSI M38-A2), Table 13; format: cell-based; settings: Aspergillus sp. of Table 13, caspofungin read as MEC
[11] = system: individual Aspergillus spp. (Table 13, species not given); assay: MFC determination, Table 13; format: cell-based; settings: Aspergillus sp. of Table 13
[12] = system: individual Aspergillus spp. (Table 14, species not named); assay: MIC testing (CLSI M38-A2), Table 14; format: cell-based; settings: Aspergillus sp. of Table 14, caspofungin read as MEC
[13] = system: individual Aspergillus spp. (Table 15, species not named); assay: MIC testing (CLSI M38-A2), Table 15; format: cell-based; settings: Aspergillus sp. of Table 15, caspofungin read as MEC
[14] = system: all Aspergillus strains tested; assay: MFC determination, summary; format: cell-based
[15] = system: Fusarium strains; assay: MIC testing (CLSI M38-A2), Table 17; format: cell-based, Fusarium spp.; settings: Fusarium strains (Table 17)
[16] = system: Fusarium strains; assay: MFC determination, Table 17; format: cell-based, Fusarium spp.; settings: Fusarium strains (Table 17)
[17] = system: Fusarium strains (Table 18); assay: MIC testing (CLSI M38-A2), Table 18; format: cell-based, Fusarium spp.
[18] = system: Fusarium strains (Table 18); assay: MFC determination, Table 18; format: cell-based, Fusarium spp.
[19] = system: Penicillium strains; assay: MFC determination; format: cell-based, Penicillium spp.
[20] = system: Blastomyces dermatitidis, Coccidioides immitis, and Histoplasma capsulatum strains; format: cell-based; settings: dimorphic fungal isolates; in µg/mL
[21] = system: A. fumigatus AF91; assay: In vitro activity (MFC) against the infecting strain, Example 17; format: cell-based, Aspergillus fumigatus; settings: Aspergillus fumigatus, read-out: MFC
[22] = system: C. albicans SC5314; assay: In vitro activity (MIC) against the infecting strain, Example 18; format: cell-based, Candida albicans; settings: Candida albicans, read-out: MIC
[23] = system: C. albicans SC5314; assay: In vitro activity (MFC) against the infecting strain, Example 18; format: cell-based, Candida albicans; settings: Candida albicans, read-out: MFC
[24] = system: Candida albicans SC5314; assay: Disseminated candidiasis in immunocompromised murine model (BALB/c mice): tissue fungal burden; format: in vivo; settings: Experiment I; 4 mg/kg i.v. twice a day, 7 days
[25] = system: Aspergillus fumigatus AF91; assay: Disseminated Aspergillosis in immunocompromised murine model (CD-1 mice): tissue fungal burden; settings: Experiment I; 7.5 mg/kg i.v., 7 days
[26] = Fluconazole-susceptible C. albicans n = 13, in µg/mL

SMILES: C[C@@H](c1ncncc1F)[C@](O)(Cn1cncn1)c1ccc(F)cc1F [Voriconazole, voriconazole]
- MIC Range [1, 26]: <0.06-0.06
- MIC50 ([1]; Fluconazole-susceptible C. albicans n = 13, inhibits 50% of strains): 0.6 µg/mL (≈ 1.72 µM)
- MIC90 ([1]; Fluconazole-susceptible C. albicans n = 13, inhibits 90% of strains): 0.06 µg/mL (≈ 0.172 µM)
- MIC ([1]; individual C. albicans strain with elevated MICs to non-polyene comparators (Table 22), listed as Vor, in µg/mL): >0.06 and 0.5 and 32
- MFC Range [2, 26]: >32
- MFC50 ([2]; Fluconazole-susceptible C. albicans n = 13, kills 50% of strains): > 32 µg/mL
- MFC90 ([2]; Fluconazole-susceptible C. albicans n = 13, kills 90% of strains): > 32 µg/mL
- MFC ([2]; individual C. albicans strain with elevated MICs to non-polyene comparators (Table 22), listed as Vor): 16 and >32 (2×)
- MIC50 ([3]; C. glabrata, inhibits 50% of strains): 0.25 µg/mL (≈ 0.716 µM)
- MIC90 ([3]; C. glabrata, inhibits 90% of strains): 4 µg/mL (≈ 11.5 µM)
- MIC ([3]; individual C. glabrata strain with elevated MICs to non-polyene comparators (Table 22), listed as Vor): 1 (3×) and >32 and 0.25 and 2
- MFC Range ([4]; C. glabrata strains, in µg/mL): >32
- MFC50 ([4]; C. glabrata, kills 50% of strains): > 32 µg/mL
- MFC90 ([4]; C. glabrata, kills 90% of strains): > 32 µg/mL
- MFC ([4]; individual C. glabrata strain with elevated MICs to non-polyene comparators (Table 22), in µg/mL): >32
- MIC Range ([5]; C. krusei strains, in µg/mL): <0.06-0.5
- MIC50 ([5]; C. krusei, inhibits 50% of strains): 0.125 µg/mL (≈ 0.358 µM)
- MIC90 ([5]; C. krusei, inhibits 90% of strains): 0.25 µg/mL (≈ 0.716 µM)
- MFC50 ([6]; kills 50% of strains): > 8 µg/mL
- MFC90 ([6]; kills 90% of strains): > 8 µg/mL
- MIC50 ([7]; C. parapsilosis, inhibits 50% of strains): < 0.06 µg/mL
- MIC90 ([7]; C. parapsilosis, inhibits 90% of strains): 0.06 µg/mL (≈ 0.172 µM)
- MIC ([7]; individual C. parapsilosis strain with elevated MICs to non-polyene comparators (Table 22), listed as Vor): 0.06 (2×) and >32
- MFC50 ([8]; kills 50% of strains): > 0.5 µg/mL
- MFC90 ([8]; kills 90% of strains): > 0.5 µg/mL
- MIC Range ([9]; in µg/mL): 0.25-4
- MIC50 ([9]; inhibits 50% of strains): 1 µg/mL (≈ 2.86 µM)
- MIC90 ([9]; inhibits 90% of strains): 2 µg/mL (≈ 5.73 µM)
- MIC Range ([10]; in µg/mL): 0.25-2
- MIC50 ([10]; inhibits 50% of strains): 0.5 µg/mL (≈ 1.43 µM)
- MIC90 ([10]; inhibits 90% of strains): 1 µg/mL (≈ 2.86 µM)
- MFC50 ([11]; kills 50% of strains): 8 µg/mL (≈ 22.9 µM)
- MFC90 ([11]; kills 90% of strains): > 8 µg/mL
- MIC Range ([12]; in µg/mL): 0.06-8
- MIC50 ([12]; inhibits 50% of strains): 1 µg/mL (≈ 2.86 µM)
- MIC90 ([12]; inhibits 90% of strains): 4 µg/mL (≈ 11.5 µM)
- MIC Range ([13]; in µg/mL): 0.25-2
- MIC50 ([13]; inhibits 50% of strains): 0.5 µg/mL (≈ 1.43 µM)
- MIC90 ([13]; inhibits 90% of strains): 0.5 µg/mL (≈ 1.43 µM)
- MFC50 ([14]; kills 50% of strains): > 8 µg/mL
- MFC90 ([14]; kills 90% of strains): > 8 µg/mL
- MIC50 ([15]; inhibits 50% of strains): 16 µg/mL (≈ 45.8 µM)
- MIC90 ([15]; inhibits 90% of strains): > 32 µg/mL
- MFC50 ([16]; kills 50% of strains): 32 µg/mL (≈ 91.6 µM)
- MFC90 ([16]; kills 90% of strains): > 32 µg/mL
- MIC50 ([17]; inhibits 50% of strains): 16 µg/mL (≈ 45.8 µM)
- MIC90 ([17]; inhibits 90% of strains): > 16 µg/mL
- MFC50 ([18]; kills 50% of strains): > 16 µg/mL
- MFC90 ([18]; kills 90% of strains): > 16 µg/mL
- MFC50 ([19]; kills 50% of strains): > 32 µg/mL
- MFC90 ([19]; kills 90% of strains): > 32 µg/mL
- MIC Range [20]: <0.03-0.125
- MFC [21]: > 8 µg/mL
- MIC [22]: 0.008 µg/mL (≈ 0.0229 µM)
- MFC [23]: > 32 µg/mL
- Brain tissue fungal burden, Mean log CFUs ± the standard deviation [24]: 3.42 ± 2.30 log CFUs
- Kidney tissue fungal burden, Mean log CFUs ± the standard deviation [24]: 3.45 ± 1.15 log CFUs
- Kidney tissue fungal burden, Mean log CFUs ± the standard deviation [25]: 3.19 ± 0.59 log CFUs
- Lung tissue fungal burden, Mean log CFUs ± the standard deviation [25]: 3.38 ± 0.45 log CFUs
